The target in one assay is T1, human CLR/RAMP1 (Homo sapiens, UniProt O60894+Q16602).
T1 construct: host or cells: 1321N1 cells (cAMP Hunter cell line)
Description: CLR/RAMP1 receptor-activation assay (DiscoverX cAMP Hunter, HitHunter cAMP XS+). It counts as cell-based. As to conditions: for Emax: read-out: CLR/RAMP1 Max Activity. The method, then:
(§1) The bioactivity of peptide analogs was studied using CLR/RAMP1, CLR/RAMP2, and CLR/RAMP3 assays by DiscoveRx (Fremont, CA, USA) in cells that stably express human CLR/RAMP1 (1321N1 cells), CLR/RAMP2 (CHO-K1 cells), or CLR/RAMP3 (CHO-K1 cells). The dose-dependent stimulatory effect of agonists was studied in duplicate, at 10 different concentrations. Determination of the half-maximal effective concentration (EC50) was performed using a 10-point dose-response curves. The starting concentration was 1.0 μM, and it was serially diluted 3-fold, in DMSO.
Cells were seeded in a total volume of 20 μL into 384-well microplates, and the activity was determined using the DiscoverX HitHunter cAMP XS + assay. Before the assay, media was aspirated from cells and replaced with 15 μL 2:1 HBSS/10 mM Hepes: cAMP XS + Ab reagent. Intermediate dilution of samples was performed to generate 4X sample in assay buffer, and 5 μL of the 4X sample was added to cells and incubated at 37°C. Vehicle concentration was 1%.
The chemiluminescent signal was read with a PerkinElmer instrument.

The target in another assay is T2, human CLR/RAMP2 (Homo sapiens, UniProt O60895+Q16602).
T2 construct: host or cells: CHO-K1 cells (PathHunter β-Arrestin cell line)
Description: CLR/RAMP2 receptor-activation assay (PathHunter β-Arrestin). It counts as cell-based. As to conditions: for Emax: read-out: CLR/RAMP2 Max Activity. How it is done: as §1
In this assay, the CLR was fused in frame with a small enzyme donor fragment ProLink™ (PK). The receptor was co-expressed with a fusion protein of β-arrestin and an N-terminal deletion mutant of β-galactosidase (i.e., enzyme acceptor). Activation of the CLR/RAMP2 receptor stimulated the binding of β-arrestin to the PK-tagged receptor and led to an increase in enzyme activities which can then be measured with the PathHunter detection reagents. PathHunter cell lines were seeded in a total volume of 20 μL into 384-well microplates and incubated at 37 °C prior to the assay. Intermediate dilution of samples was performed to generate 5X samples in the assay buffer. A 5 μL aliquot of 5X sample was added to cells and incubated at 37 °C for 90 min. Vehicle concentration was 1%.

Setting [1] is: percentage of positive control β-CGRP.

Like-named read-outs stand apart in the source and are kept apart here. Positions of bridges follow the written chain, without caps; N, C: chain ends. Non-standard residues stand in square brackets, D forms with d. Residues, ends and D or L forms follow the SMILES beside them. *: point of attachment. Palmitoyl = CCCCCCCCCCCCCCCC(=O)*; AEEA = NCCOCCOCC(=O)O

T2 sequence (Q16602 23-461): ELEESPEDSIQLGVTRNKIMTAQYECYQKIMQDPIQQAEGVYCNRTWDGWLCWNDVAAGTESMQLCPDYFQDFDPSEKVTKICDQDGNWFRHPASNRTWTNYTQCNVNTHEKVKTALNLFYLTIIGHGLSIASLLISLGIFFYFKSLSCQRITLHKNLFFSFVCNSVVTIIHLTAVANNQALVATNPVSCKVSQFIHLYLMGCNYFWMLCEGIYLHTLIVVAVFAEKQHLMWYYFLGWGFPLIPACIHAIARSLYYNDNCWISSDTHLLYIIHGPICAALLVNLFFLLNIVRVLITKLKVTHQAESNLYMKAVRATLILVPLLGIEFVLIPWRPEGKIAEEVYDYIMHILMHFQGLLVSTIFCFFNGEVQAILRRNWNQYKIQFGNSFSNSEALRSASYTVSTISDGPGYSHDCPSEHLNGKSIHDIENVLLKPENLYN
T2 sequence (O60895 43-175): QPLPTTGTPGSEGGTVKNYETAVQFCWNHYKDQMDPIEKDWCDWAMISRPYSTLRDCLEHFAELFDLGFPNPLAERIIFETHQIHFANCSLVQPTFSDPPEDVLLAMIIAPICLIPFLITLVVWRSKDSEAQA
T1 sequence (Q16602 23-461): as the sequence (Q16602 23-461) above
T1 sequence (O60894 27-148): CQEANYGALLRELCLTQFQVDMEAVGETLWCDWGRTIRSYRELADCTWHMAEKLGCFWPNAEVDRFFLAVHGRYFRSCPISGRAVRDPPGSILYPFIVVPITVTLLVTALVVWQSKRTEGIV

Consider `CCCCCCCCCCCCCCCC(=O)NCCCC[C@H](NC(=O)COCCOCCN)C(=O)NCC(=O)N[C@H]1CSSC[C@@H](C(=O)N[C@H](C(=O)N[C@H](C(=O)N[C@@H](CCC(N)=O)C(=O)N[C@@H](CCCCN)C(=O)N[C@@H](CC(C)C)C(=O)N[C@@H](C)C(=O)N[C@@H](Cc2c[nH]cn2)C(=O)N[C@@H](CCC(N)=O)C(=O)N[C@H](C(=O)N[C@@H](Cc2ccc(O)cc2)C(=O)N[C@@H](CCC(N)=O)C(=O)N[C@@H](Cc2ccccc2)C(=O)N[C@H](C(=O)N[C@@H](CC(=O)O)C(=O)N[C@@H](CCCCN)C(=O)N[C@@H](CC(=O)O)C(=O)N[C@@H](CCCCN)C(=O)N[C@@H](CC(=O)O)C(=O)N[C@@H](CC(N)=O)C(=O)N[C@@H](CO)C(=O)N[C@@H](C)C(=O)N2CCC[C@H]2C(=O)N[C@H](C(=O)N[C@@H](CC(=O)O)C(=O)N2CCC[C@H]2C(=O)N[C@@H](CO)C(=O)N[C@@H](CO)C(=O)N2CCC[C@H]2C(=O)N[C@@H](Cc2c[nH]cn2)C(=O)N[C@@H](CO)C(=O)N[C@@H](Cc2ccc(O)cc2)C(N)=O)C(C)C)[C@@H](C)O)[C@@H](C)CC)C(C)C)[C@@H](C)O)NC(=O)[C@H]([C@@H](C)O)NC(=O)CNC(=O)[C@H](Cc2ccccc2)NC(=O)[C@H](CCCNC(=N)N)NC1=O` [Analog B-1], for which the values for the Emax on human CLR/RAMP1 and on human CLR/RAMP2 were 54% and 143%, respectively.
In the case of `CSCC[C@H](NC(=O)CNC(=O)CNC(=O)[C@H](CO)NC(=O)[C@H](CCCNC(=N)N)NC(=O)[C@H](CO)NC(=O)[C@H](CC(C)C)NC(=O)[C@H](CC(C)C)NC(=O)CNC(=O)[C@H](C)NC(=O)[C@H](CC(C)C)NC(=O)[C@H](CCCNC(=N)N)NC(=O)[C@H](Cc1c[nH]cn1)NC(=O)[C@@H](NC(=O)[C@@H](NC(=O)[C@@H]1CSSC[C@H](NC(=O)[C@H](C)N)C(=O)N[C@@H](CC(N)=O)C(=O)N[C@@H]([C@@H](C)O)C(=O)N[C@@H](C)C(=O)N[C@@H]([C@@H](C)O)C(=O)N1)C(C)C)[C@@H](C)O)C(=O)N[C@H](C(=O)N[C@@H](CCCCN)C(=O)N[C@@H](CO)C(=O)N[C@@H](CC(N)=O)C(=O)N[C@@H](Cc1ccccc1)C(=O)N[C@H](C(=O)N1CCC[C@H]1C(=O)N[C@H](C(=O)N[C@@H](CC(N)=O)C(=O)N[C@H](C(=O)NCC(=O)N[C@@H](CO)C(=O)N[C@@H](CCCCN)C(=O)N[C@@H](C)C(=O)N[C@@H](Cc1ccccc1)C(N)=O)C(C)C)[C@@H](C)O)C(C)C)C(C)C` [CGRP, calcitonin gene-related peptide, reference compound], the Emax at human CLR/RAMP1 (setting [1]) came out at 103%.
For `CCCCCCCCCCCCCCCC(=O)NCCCC[C@H](NC(=O)COCCOCCN)C(=O)N[C@H](C(=O)N[C@@H](CCCCN)C(=O)N[C@@H](CCCCN)C(=O)N[C@H](C(=O)N[C@@H](CC(C)C)C(=O)N[C@@H](CCCNC(=N)N)C(=O)N[C@H](C(=O)NCC(=O)N[C@H]1CSSC[C@@H](C(=O)N[C@H](C(=O)N[C@H](C(=O)N[C@@H](CCC(N)=O)C(=O)N[C@@H](CCCCN)C(=O)N[C@@H](CC(C)C)C(=O)N[C@@H](C)C(=O)N[C@@H](Cc2c[nH]cn2)C(=O)N[C@@H](CCC(N)=O)C(=O)N[C@H](C(=O)N[C@@H](Cc2ccc(O)cc2)C(=O)N[C@@H](CCC(N)=O)C(=O)N[C@@H](Cc2ccccc2)C(=O)N[C@H](C(=O)N[C@@H](CC(=O)O)C(=O)N[C@@H](CCCCN)C(=O)N[C@@H](CC(=O)O)C(=O)N[C@@H](CCCCN)C(=O)N[C@@H](CC(=O)O)C(=O)N[C@@H](CC(N)=O)C(=O)N[C@H](C(=O)N[C@@H](C)C(=O)N2CCC[C@H]2C(=O)N[C@@H](CCCNC(=N)N)C(=O)N[C@@H](CO)C(=O)N[C@@H](CCCCN)C(=O)N[C@H](C(=O)N[C@@H](CO)C(=O)N2CCC[C@H]2C(=O)N[C@@H](CCC(N)=O)C(=O)NCC(=O)N[C@@H](Cc2ccc(O)cc2)C(N)=O)[C@@H](C)CC)C(C)C)[C@@H](C)O)[C@@H](C)CC)C(C)C)[C@@H](C)O)NC(=O)[C@H]([C@@H](C)O)NC(=O)CNC(=O)[C@H](Cc2ccccc2)NC(=O)[C@H](CCCNC(=N)N)NC1=O)[C@@H](C)O)[C@@H](C)O)[C@@H](C)O` [Analog C-8], the Emax at human CLR/RAMP1 was 69%; on human CLR/RAMP2, 68%.
On the same counts, the results for `CCCCCCCCCCCCCCCC(=O)NCCCC[C@H](NC(=O)COCCOCCN)C(=O)NCC(=O)N[C@H]1CSSC[C@@H](C(=O)N[C@H](C(=O)N[C@H](C(=O)N[C@@H](CCC(N)=O)C(=O)N[C@@H](CCCCN)C(=O)N[C@@H](CC(C)C)C(=O)N[C@@H](C)C(=O)N[C@@H](Cc2c[nH]cn2)C(=O)N[C@@H](CCC(N)=O)C(=O)N[C@H](C(=O)N[C@@H](Cc2ccc(O)cc2)C(=O)N[C@@H](CCC(N)=O)C(=O)N[C@@H](Cc2ccccc2)C(=O)N[C@H](C(=O)N[C@@H](CC(=O)O)C(=O)N[C@@H](CCCCN)C(=O)N[C@@H](CC(=O)O)C(=O)N[C@@H](CO)C(=O)N[C@@H](C)C(=O)N2CCC[C@H]2C(=O)N[C@H](C(=O)N[C@@H](CC(=O)O)C(=O)N2CCC[C@H]2C(=O)N[C@@H](CO)C(=O)N[C@@H](CO)C(=O)N2CCC[C@H]2C(=O)N[C@@H](Cc2c[nH]cn2)C(=O)N[C@@H](CO)C(=O)N[C@@H](Cc2ccc(O)cc2)C(N)=O)C(C)C)[C@@H](C)O)[C@@H](C)CC)C(C)C)[C@@H](C)O)NC(=O)[C@H]([C@@H](C)O)NC(=O)CNC(=O)[C@H](Cc2ccccc2)NC(=O)[C@H](CCCNC(=N)N)NC1=O` [Analog D-1] (H-[AEEA]K(Palmitoyl)GCRFGTCTVQKLAHQIYQFTDKDSAPVDPSSPHSY-NH2; disulfide 4-9) are 78% and 77%.
On the same counts, the results for `CCCCCCCCCCCCCCCC(=O)NCCCC[C@H](NC(=O)COCCOCCN)C(=O)NCC(=O)N[C@H]1CSSC[C@@H](C(=O)N[C@H](C(=O)N[C@H](C(=O)N[C@@H](CCC(N)=O)C(=O)N[C@@H](CCCCN)C(=O)N[C@@H](CC(C)C)C(=O)N[C@@H](C)C(=O)N[C@@H](Cc2c[nH]cn2)C(=O)N[C@@H](CCC(N)=O)C(=O)N[C@H](C(=O)N[C@@H](Cc2ccc(O)cc2)C(=O)N[C@@H](CCC(N)=O)C(=O)N[C@@H](Cc2ccccc2)C(=O)N[C@H](C(=O)N[C@@H](CC(=O)O)C(=O)N[C@@H](CCCCN)C(=O)N[C@@H](CC(=O)O)C(=O)N[C@@H](CCCCN)C(=O)N[C@@H](CC(=O)O)C(=O)N[C@@H](CC(N)=O)C(=O)N[C@H](C(=O)N[C@@H](CC(=O)O)C(=O)N2CCC[C@H]2C(=O)N[C@@H](CO)C(=O)N[C@@H](CO)C(=O)N2CCC[C@H]2C(=O)N[C@@H](Cc2c[nH]cn2)C(=O)N[C@@H](CO)C(=O)N[C@@H](Cc2ccc(O)cc2)C(N)=O)C(C)C)[C@@H](C)O)[C@@H](C)CC)C(C)C)[C@@H](C)O)NC(=O)[C@H]([C@@H](C)O)NC(=O)CNC(=O)[C@H](Cc2ccccc2)NC(=O)[C@H](CCCNC(=N)N)NC1=O` [Analog D-4] are 67% and 82%.
With `CCCCCCCCCCCCCCCC(=O)NCCCC[C@H](NC(=O)[C@@H](N)[C@@H](C)O)C(=O)N[C@@H](CCCCN)C(=O)N[C@H](C(=O)N[C@@H](CC(C)C)C(=O)N[C@@H](CCCNC(=N)N)C(=O)N[C@H](C(=O)NCC(=O)N[C@H]1CSSC[C@@H](C(=O)N[C@H](C(=O)N[C@H](C(=O)N[C@@H](CCC(N)=O)C(=O)N[C@@H](CCCCN)C(=O)N[C@@H](CC(C)C)C(=O)N[C@@H](C)C(=O)N[C@@H](Cc2c[nH]cn2)C(=O)N[C@@H](CCC(N)=O)C(=O)N[C@H](C(=O)N[C@@H](Cc2ccc(O)cc2)C(=O)N[C@@H](CCC(N)=O)C(=O)N[C@@H](Cc2ccccc2)C(=O)N[C@H](C(=O)N[C@@H](CC(=O)O)C(=O)N[C@@H](CCCCN)C(=O)N[C@@H](CC(=O)O)C(=O)N[C@@H](CCCCN)C(=O)N[C@@H](CC(=O)O)C(=O)N[C@@H](CC(N)=O)C(=O)N[C@@H](CO)C(=O)N[C@@H](C)C(=O)N2CCC[C@H]2C(=O)N[C@H](C(=O)N[C@@H](CC(=O)O)C(=O)N2CCC[C@H]2C(=O)N[C@@H](CO)C(=O)N[C@@H](CO)C(=O)N2CCC[C@H]2C(=O)N[C@@H](Cc2c[nH]cn2)C(=O)N[C@@H](CO)C(=O)N[C@@H](Cc2ccc(O)cc2)C(N)=O)C(C)C)[C@@H](C)O)[C@@H](C)CC)C(C)C)[C@@H](C)O)NC(=O)[C@H]([C@@H](C)O)NC(=O)CNC(=O)[C@H](Cc2ccccc2)NC(=O)[C@H](CCCNC(=N)N)NC1=O)[C@@H](C)O)[C@@H](C)O` [Analog C-4], the EC50 (usually the concentration needed to bring the measured effect to its halfway point) on human CLR/RAMP1 (1321N1 cells stably expressing human CLR/RAMP1, cAMP read-out, 10-point dose-response in duplicate, start 1.0 μM, 3-fold serial dilution in DMSO) was found to be 0.2 nM; at human CLR/RAMP2 (CHO-K1 cells stably expressing human CLR/RAMP2, β-arrestin recruitment, 90 min at 37 °C, 10-point dose-response in duplicate, start 1.0 μM, 3-fold dilution in DMSO) it was 0.5 nM. In addition, the Emax on human CLR/RAMP1 (setting [1]) worked out at 82%; on human CLR/RAMP2 (percentage of positive control ADM1-52) it was 86%.

The values are drawn from publication PMC9655119, “Sustained Activation of CLR/RAMP Receptors by Gel-Forming Agonists” (International Journal of Molecular Sciences, 2022).
